Measurements from patent US8084621B2, “3-Pyrrolo[b]cyclohexylene-2-dihydroindolinone derivatives and uses thereof” (Jiangsu Simcere Pharmaceutical R&D Co. Ltd., priority 2006, dated 2011).

What was measured:
Assay type in all cases: cell-based
[1] = tested on: Human Non-Small Cell Lung Cancer Cell Line (A549); test: Tumor cell proliferation assay (MTT), A549; details: for inhibition at 10 µM: concentration of 10^−5 mol/L, preliminary screening, 72 hours, read-out: Inhibition rate % A549; for IC50: secondary screening, 48 hours
Excerpt: (§1) The assay used generally is the blue tetrazolium bromide (MTT) method. […] The amount of formazan can be detected by the microplate reader through the absorption value at 570 nm. The amount of formazan product generated is proportional to the number of living cells in the sample, so the OD value may reflect the number of living cells and the ability of a test drug to inhibit or kill cells. The MTT assay may be used in determining the ability of different compounds of the present invention to inhibit one or more cancer cells proliferation. Similar assays can be designed along the same lines for any cancer cell using techniques well known in the art.
(§2) The assay used generally is the blue tetrazolium bromide (MTT) method. […] Intracellular purple formazan salt crystals can be solved in DMSO and the absorption value at 570 nm is detected by the microplate reader, then the number of living cells can be detected indirectly. So MTT assay may be used to determine the ability of a compound of the present invention to inhibit cell proliferation. Similar assays can be designed along the same lines for any cancer cell using techniques well known in the art.
2.2.2 Human Non-Small Cell Lung Cancer Cell Line (A549)
(§3) The cells of the 2.2.1, 2.2.2, 2.2.3, 2.2.4, 2.2.5 cultured with RPMI 1640 containing 12% calf serum in the condition of 37° C., 5% CO2.
(§4) 2.3.1 Cell seeding: Trypsinize the cell by 0.05% trypsin-EDTA and add RPMI 1640 medium (DMEM or 5A) containing 12% calf serum. Count the number, then dilute to 1.67×10^4/ml. Add 180 ul/well to the 96 well plate (3000 cells/well).
(§5) 2.3.2 Culture: cells are incubated for 24 hours at 37° C. under 5% CO2.
(§6) 2.3.3 Preliminary screening: The compounds are firstly diluted to 0.1 mol/L with DMSO, and then diluted to three concentrations of 10^−5 mol/L, 10^−6 mol/L and 10^−7 mol/L. Add 20 ul test compounds to the 96 well plate and incubate for 72 hours. Each group has three parallel wells and all experiments repeat three times. Each inhibition ratio is calculated, then an average value of three times is taken as the measured value. 2.3.4 Staining 2.3.4.1 Attached cell: add 20 ul/well MTT to the 96-well plates; incubate for 4 hours in the incubator. Pour out the culture medium in the well and add 100 ul/well DMSO. Shake the plate for 5 min. 2.3.4.2 Suspension cell: add 20 ul/well MTT to the 96-well plates; incubate for 4 hours in the incubator. Add 50 ul/well 20% SDS and incubate for overnight in the incubator. 2.3.5 Reading the plates: read the absorbance A570-A630 with the Infinite M200 microtiter plate reader. Calculate the inhibition ratio of the test compounds. 2.3.6 Secondary screening: the compounds whose inhibition ratio is greater than 50% at the concentrations of 10^−5 mol/L in the preliminary screening will be picked out for Secondary screening. Dilute these compounds to ten concentrations: 10^−5 mol/L, 0.5×10^−5 mol/L, 10^−6 mol/L, 0.8×10^−6 mol/L, 0.6×10^−6 mol/L, 0.4×10^−6 mol/L, 0.2×10^−6 mol/L, 10^−7 mol/L, 0.8×10^−7 mol/L and 0.4×10^−7 mol/L. Add 20 ul test compound solution to the 96 well plate and incubate for 48 hours. Each group has three parallel wells and all experiments repeat for three times. Read the plates and calculate the inhibition ratio according to the preliminary screening method. 2.3.7 Calculate the Inhibition Ratio of Cell Proliferation and the IC50
(§7) According to the inhibition ratio of cell proliferation at the different concentrations of the compound, inhibition ratio of 50% of the test compound is calculated through the logarithm of the concentration of the compound with the Logit [I] linear regression, and an average value of three times is taken as the measured value of a sample.

[2] = tested on: Human Pancreatic Carcinoma Cell Line (BXPC-3); test: Tumor cell proliferation assay (MTT), BXPC-3; details: for inhibition at 10 µM: concentration of 10^−5 mol/L, preliminary screening, 72 hours, read-out: Inhibition rate % BXPC-3; for IC50: secondary screening, 48 hours
Excerpt: as §1, §2
2.2.6 Human Pancreatic Carcinoma Cell Line (BXPC-3);
The cells of 2.2.6, 2.2.7 cultured in RPMI 1640 medium containing 12% fetal bovine serum in the condition of 37° C., 5% CO2.
as §4, §5
as §6, with “2.3.6 Secondary screening: the compounds whose inhibition ratio is greater than 50% at the concentrations of 10^−5 mol/L in the preliminary screening will be picked out for Secondary screening.” left out
as §7

[3] = tested on: Human Pancreatic Carcinoma Cells (PANC-1); test: Tumor cell proliferation assay (MTT), PANC-1; details: for inhibition at 10 µM: concentration of 10^−5 mol/L, preliminary screening, 72 hours, read-out: Inhibition rate % PANC-1; for IC50: secondary screening, 48 hours
Excerpt: as §1, §2
2.2.4 Human Pancreatic Carcinoma Cells (PANC-1)
as §3, §4, §5, §6, §7

[4] = tested on: Human Ovarian Cancer Cell Line (SK-OV-3); test: Tumor cell proliferation assay (MTT), SK-OV-3; details: for inhibition at 10 µM: concentration of 10^−5 mol/L, preliminary screening, 72 hours, read-out: Inhibition rate % SK-OV-3; for IC50: secondary screening, 48 hours
Excerpt: as §1, §2
2.2.13 Human Ovarian Cancer Cell Line (SK-OV-3).
The cells of 2.2.11, 2.2.12, 2.2.13 were cultured in MC COYS 5-A medium containing 12% fetal bovine serum in the condition of 37° C., 5% CO2.
as §4, §5, §6, §7

| SMILES | inhibition at 10 µM [1] [%] | inhibition at 10 µM [2] [%] | IC50 [2] [nM] | inhibition at 10 µM [3] [%] | inhibition at 10 µM [4] [%] | IC50 [1] [nM] | IC50 [4] [nM] | IC50 [3] [nM] |
| --- | --- | --- | --- | --- | --- | --- | --- | --- |
| Cc1[nH]c2c(c1C(=O)NCCO)CCC/C2=C1/C(=O)Nc2ccccc21 [I-8, N-(2-hydroxyethyl)-2-methyl-7-[1,2-dihydro-2-oxo-3H-indol-(Z)-3-ylidene]-4,5,6,7-tetrahydro-1H-indole-3-carboxamide] | 0.24 | 74.9 | 1170 | 5.66 | 38.1 | – | – | – |
| CCN(CC)CCNC(=O)c1c(C)[nH]c2c1CCC/C2=C1/C(=O)Nc2ccccc21 [I-5, N-(2-(diethylamino)ethyl)-2-methyl-7-[1,2-dihydro-2-oxo-3H-indol-(Z)-3-ylidene]-4,5,6,7-tetrahydro-1H-indole-3-carboxamide] | 6.71 | 89.4 | 520 | 47.8 | 77.5 | – | – | – |
| CCN(CC)CCNC(=O)c1c(C)[nH]c2c1CCC/C2=C1/C(=O)Nc2ccc(C)cc21 [I-4, N-(2-(diethylamino)ethyl)-2-methyl-7-[1,2-dihydro-5-methyl-2-oxo-3H-indol-(Z)-3-ylidene]-4,5,6,7-tetrahydro-1H-indole-3-carboxamide] | 67.5 | 78.4 | – | – | 57.1 | 1010 | 5270 | – |
| Cc1[nH]c2c(c1C(=O)NCC(O)CN1CCCCC1)CCC/C2=C1/C(=O)Nc2ccccc21 (centres unmarked) [I-73, N-(2-hydroxy-3-(piperidin-1-yl)propyl)-2-methyl-7-[1,2-dihydro-2-oxo-3H-indol-(Z)-3-ylidene]-4,5,6,7-tetrahydro-1H-indole-3-carboxamide] | 2.54 | 90.2 | 1240 | 48 | 71.9 | – | – | – |
| Cc1[nH]c2c(c1C(=O)NCC(O)CN1CCCC1)CCC/C2=C1/C(=O)Nc2ccccc21 (centres unmarked) [I-70, N-(2-hydroxy-3-(pyrrolidin-1-yl)propyl)-2-methyl-7-[1,2-dihydro-2-oxo-3H-indol-(Z)-3-ylidene]-4,5,6,7-tetrahydro-1H-indole-3-carboxamide] | 76.3 | 98.7 | 970 | 97.4 | 95.6 | 1030 | 1140 | 1630 |
| Cc1[nH]c2c(c1C(=O)NCCO)CCC/C2=C1/C(=O)Nc2ccc(F)cc21 [I-9, N-(2-hydroxyethyl)-2-methyl-7-[1,2-dihydro-5-fluoro-2-oxo-3H-indol-(Z)-3-ylidene]-4,5,6,7-tetrahydro-1H-indole-3-carboxamide] | 16.3 | 63.7 | – | 0 | – | – | – | – |
| Cc1[nH]c2c(c1C(=O)NCC(O)CN1CCOCC1)CCC/C2=C1/C(=O)Nc2ccc(F)cc21 (centres unmarked) [I-68, N-(2-hydroxy-3-morpholinopropyl)-2-methyl-7-[1,2-dihydro-5-fluoro-2-oxo-3H-indol-(Z)-3-ylidene]-4,5,6,7-tetrahydro-1H-indole-3-carboxamide] | 61.1 | 60.7 | 6490 | 34.3 | 11.1 | 5490 | – | – |
| Cc1[nH]c2c(c1C(=O)NCC(O)CN1CCCCC1)CCC/C2=C1/C(=O)Nc2ccc(F)cc21 (centres unmarked) [I-74, N-(2-hydroxy-3-(piperidin-1-yl)propyl)-2-methyl-7-[1,2-dihydro-5-fluoro-2-oxo-3H-indol-(Z)-3-ylidene]-4,5,6,7-tetrahydro-1H-indole-3-carboxamide] | 1.27 | 32.1 | 240 | 93.6 | 88.2 | – | – | – |
| CCN(CC)CCNC(=O)c1c(C)[nH]c2c1CCC/C2=C1/C(=O)Nc2ccc(Cl)cc21 [I-3, N-(2-(diethylamino)ethyl)-2-methyl-7-[1,2-dihydro-5-chloro-2-oxo-3H-indol-(Z)-3-ylidene]-4,5,6,7-tetrahydro-1H-indole-3-carboxamide] | 55.5 | 96 | 1950 | 69.8 | 86.7 | 4950 | 2990 | 1940 |
| CCN(CC)CC(O)CNC(=O)c1c(C)[nH]c2c1CCC/C2=C1/C(=O)Nc2ccccc21 (centres unmarked) [I-63, N-(3-(diethylamino)-2-hydroxypropyl)-2-methyl-7-[1,2-dihydro-2-oxo-3H-indol-(Z)-3-ylidene]-4,5,6,7-tetrahydro-1H-indole-3-carboxamide] | 61.8 | 97.3 | 1160 | 92.1 | 94 | 2010 | 1350 | 660 |
| Cc1[nH]c2c(c1C(=O)NCCN(C)C)CCC/C2=C1/C(=O)Nc2ccc(F)cc21 [I-6, N-(2-(dimethylamino)ethyl)-2-methyl-7-[1,2-dihydro-5-fluoro-2-oxo-3H-indol-(Z)-3-ylidene]-4,5,6,7-tetrahydro-1H-indole-3-carboxamide] | – | 64.9 | 5990 | 19.8 | 32.2 | – | – | – |
| Cc1[nH]c2c(c1C(=O)N1CCN(C)CC1)CCC/C2=C1/C(=O)Nc2ccc(F)cc21 [I-14, 2-methyl-3-(4-methylpiperazine-1-carbonyl)-7-[1,2-dihydro-5-fluoro-2-oxo-3H-indol-(Z)-3-ylidene]-4,5,6,7-tetrahydro-1H-indole] | 4.43 | 68.3 | – | 14 | – | – | – | – |
| Cc1[nH]c2c(c1C(=O)NCCCN(C)C)CCC/C2=C1/C(=O)Nc2ccc(Cl)cc21 [I-7, N-(3-(dimethylamino)propyl)-2-methyl-7-[1,2-dihydro-5-chloro-2-oxo-3H-indol-(Z)-3-ylidene]-4,5,6,7-tetrahydro-1H-indole-3-carboxamide] | – | 69.5 | 3430 | 51.8 | 63.3 | – | 3040 | 6630 |
